“Also recorded” adds a separate entry of the source. Like-named read-outs stand apart in the source and are kept apart here.
Tests used:
[1] = tested on: patients with heart failure with reduced ejection fraction
Source text: The primary outcome was a composite of the time to a heart failure event or cardiovascular death, whichever occurred first. A heart failure event was defined as an urgent clinic visit, emergency department visit or hospitalization for subjectively and objectively worsening heart failure leading to treatment intensification beyond changed oral diuretic therapy. Secondary outcomes were: the time to cardiovascular death; change in KCCQ Total Symptom Score (TSS) from baseline to Week 24 (scale from 0 to 100; higher score indicates fewer symptoms); time to first heart failure hospitalization; and time to all-cause death. All deaths, HF events, major cardiac ischemic events (myocardial infarction/unstable angina hospitalization, and coronary revascularization), and strokes were adjudicated by a blinded external Clinical Events Committee (Duke Clinical Research Institute) using standardized definitions.

[2] = type: in vivo; settings: human, plasma, oral, at 6 weeks, read-out: Omecamtiv mecarbil PK value (plasma concentration), median
[3] = tested on: patients with or without AFF; type: in vivo; settings: for Troponin I increase: at 6 weeks; for Treatment effect on primary outcome by AFF at baseline: multivariable covariate-interaction model
[4] = Single 35 mg dose of radiolabeled OM: blood to plasma ratio and excretion; type: in vivo, human; settings: oral radiolabeled OM, healthy subjects
Source text: The volume of distribution at steady state was approximately 4.8-6.6 L/kg.
(§1) Clearance of OM after oral administration was primarily through metabolism in the liver. […] Following oral administration of radiolabeled OM to healthy subjects, approximately 49% of the dose was excreted in urine (primarily as metabolites with 8% of parent compound recovered) and 38% in feces (primarily as unchanged drug).

CYP2D6 = CYP2D6 (Homo sapiens, UniProt P10635); assay: Metabolism of OM by CYP enzymes; type: in vitro ADME; settings: result in words; listed as OM
Chain of CYP2D6 (P10635 whole entry): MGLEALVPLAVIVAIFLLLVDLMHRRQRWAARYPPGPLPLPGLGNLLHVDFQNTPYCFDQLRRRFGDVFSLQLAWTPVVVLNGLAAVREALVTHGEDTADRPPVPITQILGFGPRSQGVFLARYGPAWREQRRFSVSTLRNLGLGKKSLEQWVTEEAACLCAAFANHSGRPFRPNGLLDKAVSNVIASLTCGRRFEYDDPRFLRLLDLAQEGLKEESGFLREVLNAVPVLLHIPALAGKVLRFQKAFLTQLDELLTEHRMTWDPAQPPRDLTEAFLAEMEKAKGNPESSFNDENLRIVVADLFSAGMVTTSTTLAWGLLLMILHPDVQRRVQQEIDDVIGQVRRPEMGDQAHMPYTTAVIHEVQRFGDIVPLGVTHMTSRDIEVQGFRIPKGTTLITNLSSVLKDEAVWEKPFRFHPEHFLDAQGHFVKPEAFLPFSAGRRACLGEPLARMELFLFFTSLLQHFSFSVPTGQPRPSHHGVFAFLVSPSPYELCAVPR
Source text: as §1

CYP3A4 [5] = target: CYP3A4 (Homo sapiens, UniProt P08684); assay: Metabolism of OM by CYP enzymes; type: in vitro ADME; settings: result in words
Chain of CYP3A4 (Homo sapiens, UniProt P08684) (P08684 whole entry): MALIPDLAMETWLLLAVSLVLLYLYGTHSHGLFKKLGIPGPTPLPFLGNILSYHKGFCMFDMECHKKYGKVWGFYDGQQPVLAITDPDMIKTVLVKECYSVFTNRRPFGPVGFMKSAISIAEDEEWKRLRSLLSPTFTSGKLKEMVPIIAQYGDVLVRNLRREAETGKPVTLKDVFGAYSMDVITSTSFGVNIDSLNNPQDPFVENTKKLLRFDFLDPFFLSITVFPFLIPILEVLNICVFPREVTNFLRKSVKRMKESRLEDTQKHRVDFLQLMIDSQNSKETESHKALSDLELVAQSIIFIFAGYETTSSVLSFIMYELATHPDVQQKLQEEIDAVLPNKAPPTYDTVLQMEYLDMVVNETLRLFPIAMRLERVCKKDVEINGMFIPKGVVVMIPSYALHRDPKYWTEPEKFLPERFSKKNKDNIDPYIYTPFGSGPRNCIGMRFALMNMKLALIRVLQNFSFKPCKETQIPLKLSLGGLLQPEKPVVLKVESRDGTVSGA
Source text: as §1

P-gp = P-gp (Homo sapiens, UniProt P08183); assay: In vitro inhibition by OM; type: in vitro ADME; settings: result in words
Chain of P-gp (P08183 whole entry): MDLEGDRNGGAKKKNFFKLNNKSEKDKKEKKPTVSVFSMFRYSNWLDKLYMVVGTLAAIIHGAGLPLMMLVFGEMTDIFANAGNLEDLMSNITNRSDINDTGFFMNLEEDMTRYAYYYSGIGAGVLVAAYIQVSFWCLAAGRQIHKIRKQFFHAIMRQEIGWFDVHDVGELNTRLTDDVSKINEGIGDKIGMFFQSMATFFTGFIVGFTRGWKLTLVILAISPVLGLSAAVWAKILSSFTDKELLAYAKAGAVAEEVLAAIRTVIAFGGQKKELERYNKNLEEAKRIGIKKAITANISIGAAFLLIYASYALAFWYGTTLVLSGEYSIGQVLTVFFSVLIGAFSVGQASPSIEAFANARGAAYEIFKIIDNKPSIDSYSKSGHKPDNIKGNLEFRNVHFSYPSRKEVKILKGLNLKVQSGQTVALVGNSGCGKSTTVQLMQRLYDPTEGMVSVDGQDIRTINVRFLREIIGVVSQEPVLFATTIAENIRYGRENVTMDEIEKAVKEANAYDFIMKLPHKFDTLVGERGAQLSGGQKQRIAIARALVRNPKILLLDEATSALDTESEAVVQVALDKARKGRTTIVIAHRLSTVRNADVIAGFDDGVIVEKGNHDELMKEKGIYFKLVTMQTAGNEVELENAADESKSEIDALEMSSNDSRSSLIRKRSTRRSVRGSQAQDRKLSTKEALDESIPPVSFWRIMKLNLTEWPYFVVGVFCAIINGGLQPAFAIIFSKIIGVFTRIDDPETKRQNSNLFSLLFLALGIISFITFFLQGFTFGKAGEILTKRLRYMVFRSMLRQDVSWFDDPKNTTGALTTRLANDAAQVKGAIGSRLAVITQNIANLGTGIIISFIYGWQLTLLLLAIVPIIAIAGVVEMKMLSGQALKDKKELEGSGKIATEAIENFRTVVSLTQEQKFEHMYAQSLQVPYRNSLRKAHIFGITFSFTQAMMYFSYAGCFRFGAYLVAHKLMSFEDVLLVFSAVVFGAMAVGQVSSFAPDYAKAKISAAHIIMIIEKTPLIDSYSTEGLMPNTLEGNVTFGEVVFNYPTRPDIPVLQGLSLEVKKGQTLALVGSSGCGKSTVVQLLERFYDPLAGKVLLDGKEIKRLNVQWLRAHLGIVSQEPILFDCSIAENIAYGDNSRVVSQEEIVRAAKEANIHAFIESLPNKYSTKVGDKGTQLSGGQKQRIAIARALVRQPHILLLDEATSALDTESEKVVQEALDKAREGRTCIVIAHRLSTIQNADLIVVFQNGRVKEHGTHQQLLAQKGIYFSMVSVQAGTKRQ

MATE1 = target: T1, MATE1 (Homo sapiens, UniProt Q96FL8); assay: In vitro inhibition by OM; type: in vitro ADME; settings: result in words
T1 sequence (Q96FL8 1-570): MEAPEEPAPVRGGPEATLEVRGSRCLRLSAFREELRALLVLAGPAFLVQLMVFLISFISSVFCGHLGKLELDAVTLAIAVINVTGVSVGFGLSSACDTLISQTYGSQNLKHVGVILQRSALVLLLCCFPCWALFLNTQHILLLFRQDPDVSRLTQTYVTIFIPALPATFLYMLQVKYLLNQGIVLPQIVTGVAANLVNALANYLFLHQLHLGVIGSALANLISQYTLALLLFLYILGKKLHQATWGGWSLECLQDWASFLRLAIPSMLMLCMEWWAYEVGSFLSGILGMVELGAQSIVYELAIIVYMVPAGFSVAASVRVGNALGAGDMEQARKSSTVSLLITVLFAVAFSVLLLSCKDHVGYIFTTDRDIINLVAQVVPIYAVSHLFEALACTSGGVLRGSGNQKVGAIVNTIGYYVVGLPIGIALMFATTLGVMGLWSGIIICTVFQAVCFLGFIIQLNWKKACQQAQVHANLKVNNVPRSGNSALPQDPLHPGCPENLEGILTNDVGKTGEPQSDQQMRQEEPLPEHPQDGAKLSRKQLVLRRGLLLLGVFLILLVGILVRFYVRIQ

CYP3A4 [6] = assay: In vitro induction by OM; type: in vitro ADME; settings: result in words
Source text: (§2) OM may be administered with drugs that are substrates of CYP3A4, CYP2C8, P-gp or BCRP.

[7] = Drug interactions: change in OM pharmacokinetics in the presence of co-administered drugs; type: in vivo, human
CYP3A4 [8] = assay: Clinical studies and physiologically based pharmacokinetic modeling of OM as perpetrator; type: in vivo, human; settings: clinical studies and PBPK modeling; result in words
Source text: as §2

[9] = CYP2D6 genotype: PM (N = 8) versus EM (N = 16)
[10] = with P-gp inhibitor amiodarone 600 mg SD, OM 50 mg SD, vs OM alone
[11] = with moderate CYP3A inhibitor diltiazem 240 mg QD × 8 days, OM 10 mg SD, vs OM alone
[12] = with pH modifying agent omeprazole 40 mg QD × 6 days, OM 50 mg SD, vs OM alone
[13] = with strong CYP3A and P-gp inhibitor ketoconazole 200 mg BID × 8 days, OM 10 mg SD, vs OM alone

COC(=O)N1CCN(Cc2cccc(NC(=O)Nc3ccc(C)nc3)c2F)CC1 [omecamtiv mecarbil]
Reduction in fatal stroke ([1]; all patients randomized): 42% | Reduction in the risk of first fatal or non-fatal stroke ([1]; all patients randomized): 35% | Adjudicated type of first stroke event: Hemorrhagic, % ([1]; in vivo): 0.1% | Adjudicated type of first stroke event: Ischemic (Non-hemorrhagic), % ([1]; in vivo): 1.6% | Adjudicated type of first stroke event: Undetermined, % ([1]; in vivo): 0.1% | Adjudicated type of first stroke event: Ischemic with hemorrhagic transformation, % ([1]; n = 4110): 0.1% | New onset atrial fibrillation/flutter, hazard ratio ([1]; no AF/F at screening): 0.70 | New onset atrial fibrillation/flutter, hazard ratio ([1]; no history of AF/F): 0.60 | Non-fatal and fatal stroke, hazard ratio ([1]; no history of atrial fibrillation): 0.81 | Non-fatal and fatal stroke, hazard ratio ([1]; no history of stroke): 0.78 | Primary endpoint, hazard ratio ([1]; patients with a history of stroke, vs placebo): 0.86 | Primary endpoint, hazard ratio ([1]; patients with no stroke, vs placebo): 0.93 | Time to first stroke event ([1]; result in words): significantly reduced | Fatal stroke, hazard ratio ([1]; vs placebo): 0.56 | Non-fatal and fatal stroke, hazard ratio ([1]; with history of atrial fibrillation): 0.49 | Non-fatal and fatal stroke, hazard ratio ([1]; with history of stroke): 0.23 | concentration at 6 weeks ([2]; patients not taking digoxin): 280 ng/mL | concentration at 6 weeks ([2]; patients taking digoxin): 286 ng/mL | Troponin I increase ([3]; patients in AFF at baseline not taking digoxin): +45% | Troponin I increase ([3]; patients in AFF at baseline taking digoxin): +29% | Treatment effect on primary outcome by AFF at baseline ([3]; result in words): greater benefit observed in patients not in AFF | Treatment effect on primary outcome by AFF at baseline ([3]; result in words, listed as OM): patients without AFF deriving greater benefit | Serious adverse events, events ([3]; per 2974 patients, over the course of the study (FIG. 21E)): 55 events | Treatment effect modification by AFF according to digoxin use ([3]; result in words): significantly more pronounced in digoxin users than in non-users | Parent compound recovered in urine [4]: 8% | Dose excreted in urine ([4]; primarily as metabolites): approximately 49% | Dose excreted in feces ([4]; primarily as unchanged drug): ~38% | Metabolism by CYP2D6 (CYP2D6): extensively metabolized; also recorded: metabolized in vitro | Metabolism by CYP3A4 (CYP3A4 [5]): substrate | Metabolism by CYP3A4 (CYP3A4 [5]; listed as OM): extensively metabolized; also recorded: metabolized in vitro | Inhibition of P-gp (P-gp): inhibitor | Inhibition of MATE1 (MATE1): inhibitor | Induction of CYP3A4 (CYP3A4 [6]): inducer | % Change of OM AUC (↑ = increase) [7, 9]: ↑30% | % Change of OM Cmax (↓ = decrease) [7, 9]: ↓18% | Mean Ratio of OM AUC (90% CI) [7, 9]: 1.30 (0.93-1.82) | Mean Ratio of OM Cmax (90% CI) [7, 9]: 0.82 (0.63-1.07) | % Change of OM AUC (↑ = increase) [7, 10]: ↑ 21% | Mean Ratio of OM AUC (90% CI) [7, 10]: 1.21 (1.08-1.36) | Mean Ratio of OM Cmax (90% CI) [7, 10]: 1.08 (0.96-1.22) | % Change of OM Cmax (↓ = decrease) [7, 11]: ↓21% | Mean Ratio of OM AUC (90% CI) [7, 11]: 1.08 (0.97-1.22) | Mean Ratio of OM Cmax (90% CI) [7, 11]: 0.79 (0.60-1.04) | Mean Ratio of OM AUC (90% CI) [7, 12]: 0.95 (0.82-1.09) | Mean Ratio of OM Cmax (90% CI) [7, 12]: 1.01 (0.95-1.07) | % Change of OM AUC (↑ = increase) [7, 13]: ↑51% | Mean Ratio of OM AUC (90% CI) [7, 13]: 1.51 (1.20-1.91) | Mean Ratio of OM Cmax (90% CI) [7, 13]: 1.03 (0.76-1.40) | Induction of CYP3A4 (CYP3A4 [8]): weak inducer

Reference: patent publication US12194039B2, “Methods of treating heart failure by administering omecamtiv mecarbil” (Cytokinetics, Inc., priority 2020, dated 2025)
